Holding throughout (type): biochemical
Experiment [1] concerns the target T1, MMP-7FL (full-length matrilysin) (Homo sapiens, UniProt P09237).
T1 sequence (P09237 95-267): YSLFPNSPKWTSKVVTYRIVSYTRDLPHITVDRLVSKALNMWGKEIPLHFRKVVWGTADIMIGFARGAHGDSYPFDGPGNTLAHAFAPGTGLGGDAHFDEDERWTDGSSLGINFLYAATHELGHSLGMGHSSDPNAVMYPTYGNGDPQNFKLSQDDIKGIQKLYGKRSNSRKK
Put plainly: Thiopeptolide hydrolysis assay, MMP-7FL. Conditions: Table 2; thiopeptolide substrate, HEPES pH 7.0; read-out: IC50 (μM) Versus Certain MMPs: MMP07 (FL). The source says: (§1) The invention compounds of Formula I have been evaluated in standard assays for their ability to inhibit the catalytic activity of various MMP enzymes.
(§2) Thiopeptolide substrates show virtually no decomposition or hydrolysis at or below neutral pH in the absence of a matrix metalloproteinase enzyme.
(§3) Several representative compounds have been evaluated for their ability to inhibit various matrix metalloproteinase enzymes.

The target of experiment [2] is MMP-14CD (catalytic domain of MMP-14) (Homo sapiens, UniProt P50281). Put plainly: Thiopeptolide hydrolysis assay, MMP-14CD. The following applies: Table 2; thiopeptolide substrate, HEPES pH 7.0; read-out: IC50 (μM) Versus Certain MMPs: MMP14 (CD).
Source text: as §1, §2, §3

In experiment [3] the target is MMP-3CD (catalytic domain of stromelysin-1) (Homo sapiens, UniProt P08254). The experiment can be described thus: Thiopeptolide hydrolysis assay, MMP-3CD. Conditions: Table 2; thiopeptolide substrate, MES buffer pH 6.0; read-out: IC50 (μM) Versus Certain MMPs: MMP03 (CD). The method, then: as §1, §2, §3
Chain of MMP-3CD (catalytic domain of stromelysin-1) (P08254 100-272 limits assumed): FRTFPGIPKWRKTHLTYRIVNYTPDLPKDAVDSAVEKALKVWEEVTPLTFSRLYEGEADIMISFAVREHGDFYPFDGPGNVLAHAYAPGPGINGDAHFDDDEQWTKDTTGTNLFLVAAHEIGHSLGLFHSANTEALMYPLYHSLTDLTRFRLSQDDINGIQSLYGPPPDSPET
It should be appreciated that the assay buffer used with MMP-3CD was 50 mM of N-morpholinoethane sulfonate (“MES”) at pH 6.0 rather than the HEPES buffer at pH 7.0 described above.

In experiment [4] the target is MMP-9FL (full-length Gelatinase B) (Homo sapiens, UniProt P14780). The experiment can be described thus: Thiopeptolide hydrolysis assay, MMP-9FL. Conditions: Table 2; thiopeptolide substrate, HEPES pH 7.0; read-out: IC50 (μM) Versus Certain MMPs: MMP09 (FL).
Chain of MMP-9FL (full-length Gelatinase B) (P14780 94-707, species assumed): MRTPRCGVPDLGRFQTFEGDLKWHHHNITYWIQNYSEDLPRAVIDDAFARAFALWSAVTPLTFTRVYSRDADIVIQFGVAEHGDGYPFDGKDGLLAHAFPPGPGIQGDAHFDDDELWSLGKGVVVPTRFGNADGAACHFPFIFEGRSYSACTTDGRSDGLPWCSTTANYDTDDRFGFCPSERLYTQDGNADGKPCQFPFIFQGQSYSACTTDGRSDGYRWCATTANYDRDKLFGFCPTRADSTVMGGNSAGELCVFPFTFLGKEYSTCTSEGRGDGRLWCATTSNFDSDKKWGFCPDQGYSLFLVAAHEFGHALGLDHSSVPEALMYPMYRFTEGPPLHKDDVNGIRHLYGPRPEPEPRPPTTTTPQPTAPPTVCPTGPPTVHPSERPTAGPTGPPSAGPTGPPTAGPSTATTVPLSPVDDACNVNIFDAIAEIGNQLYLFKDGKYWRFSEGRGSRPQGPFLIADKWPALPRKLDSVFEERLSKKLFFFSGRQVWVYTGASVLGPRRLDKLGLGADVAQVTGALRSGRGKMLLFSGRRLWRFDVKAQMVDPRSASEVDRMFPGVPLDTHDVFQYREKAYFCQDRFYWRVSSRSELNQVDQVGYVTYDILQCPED
Source text: as §1, §2, §3

The target of experiment [5] is T2, MMP-1FL (full-length interstitial collagenase) (Homo sapiens, UniProt P03956).
T2 sequence (P03956 100-469): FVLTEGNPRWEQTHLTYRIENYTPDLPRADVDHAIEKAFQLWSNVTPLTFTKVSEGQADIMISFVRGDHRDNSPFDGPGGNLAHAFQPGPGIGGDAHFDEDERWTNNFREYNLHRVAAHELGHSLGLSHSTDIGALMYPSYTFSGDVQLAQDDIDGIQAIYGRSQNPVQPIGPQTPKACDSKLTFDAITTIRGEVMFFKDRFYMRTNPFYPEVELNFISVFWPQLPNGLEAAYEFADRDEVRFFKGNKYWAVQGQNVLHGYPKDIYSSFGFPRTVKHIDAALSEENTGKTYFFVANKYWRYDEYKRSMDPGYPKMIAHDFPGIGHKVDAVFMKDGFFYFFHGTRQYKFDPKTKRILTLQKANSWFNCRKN
The experiment can be described thus: Thiopeptolide hydrolysis assay, MMP-1FL. Conditions: Table 2; thiopeptolide substrate, HEPES pH 7.0; read-out: IC50 (μM) Versus Certain MMPs: MMP01 (FL).
Source text: as §1, §2, §3

The target in experiment [6] is T3, MMP-2FL (full-length Gelatinase A) (Homo sapiens, UniProt P08253).
T3 sequence (P08253 110-660): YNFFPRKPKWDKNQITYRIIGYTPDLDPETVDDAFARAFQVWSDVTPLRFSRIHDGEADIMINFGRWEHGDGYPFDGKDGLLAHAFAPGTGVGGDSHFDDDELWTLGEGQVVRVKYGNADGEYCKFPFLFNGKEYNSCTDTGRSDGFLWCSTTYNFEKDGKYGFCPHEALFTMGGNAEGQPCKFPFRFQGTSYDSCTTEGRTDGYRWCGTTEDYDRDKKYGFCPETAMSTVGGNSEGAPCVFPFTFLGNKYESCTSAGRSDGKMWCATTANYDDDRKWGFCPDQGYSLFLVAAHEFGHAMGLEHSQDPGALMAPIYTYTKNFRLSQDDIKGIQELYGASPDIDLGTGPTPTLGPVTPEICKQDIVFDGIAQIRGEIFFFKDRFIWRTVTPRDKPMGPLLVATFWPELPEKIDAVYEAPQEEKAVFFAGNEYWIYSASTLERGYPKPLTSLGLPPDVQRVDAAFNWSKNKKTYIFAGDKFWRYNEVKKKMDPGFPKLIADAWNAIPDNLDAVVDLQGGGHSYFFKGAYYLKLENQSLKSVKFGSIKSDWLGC
The experiment can be described thus: Thiopeptolide hydrolysis assay, MMP-2FL. The following applies: Table 2; thiopeptolide substrate, HEPES pH 7.0; read-out: IC50 (μM) Versus Certain MMPs: MMP02 (FL).
Source text: as §1, §2, §3

For experiment [7], the target named is MMP-13CD (catalytic domain of collagenase 3) (Homo sapiens, UniProt P45452). Put plainly: Thiopeptolide hydrolysis assay, MMP-13CD. Conditions: Table 2; thiopeptolide substrate, HEPES pH 7.0; read-out: IC50 (μM) Versus Certain MMPs: MMP13 (CD).
Source text: as §1, §2, §3

Bounds are passed on as bounds.

What is called IC50 is the point on the concentration scale where inhibition reaches its midpoint.

`CN1C(=O)N(Cc2ccc(C(=O)O)cc2)S(=O)(=O)c2cc(C(=O)NCc3ccccc3)ccc21` [Example 11, 4-(7-Benzylcarbamoyl-4-methyl-1,1,3-trioxo-3,4-dihydro-H-1l^6-benzo[1,2,4]thiadiazin-2-ylmethyl)-benzoic Acid]: the IC50 in experiment [1], in experiment [2], in experiment [3], in experiment [4], in experiment [5] and in experiment [6] was > 100 µM each time. Also, the 50% inhibitory concentration (IC50) in experiment [7] worked out at 0.066 µM.
As to `COc1ccc(CNC(=O)c2ccc3c(c2)S(=O)(=O)N(Cc2ccc(C(=O)O)cc2)C(=O)N3C)cc1` [Example 13, 4-[7-(4-Methoxy-benzylcarbamoyl)-4-methyl-1,1,3-trioxo-3,4-dihydro-1H-1l^6-benzo[1,2,4]thiadiazin-2-ylmethyl]-benzoic Acid], the concentration for half-maximal inhibition (IC50) in experiment [1] was > 100 µM; in experiment [2], > 100 µM; in experiment [3], 64 µM; in experiment [4] it was > 100 µM; in experiment [5], > 100 µM; in experiment [6] it was > 100 µM. Also, the IC50 in experiment [7] stood at 0.011 µM.
With `COc1ccc(CNC(=O)c2ccc3c(c2)S(=O)(=O)N(Cc2ccc(C(=O)N4CCCCC4)cc2)C(=O)N3C)cc1` [Example 27, 4-Methyl-1,1,3-trioxo-2-[4-(piperidine-1-carbonyl)-benzyl]-1,2,3,4-tetrahydro-1l^6-benzo[1,2,4]thiadiazine-7-carboxylic acid 4-methoxy-benzylamide], the IC50 in experiment [1] was > 30 µM; in experiment [2], > 30 µM; in experiment [3], 10 µM; in experiment [4], > 30 µM; in experiment [5], > 30 µM; in experiment [7] it was 0.29 µM.
On to `COc1cccc(CNC(=O)c2ccc3c(c2)S(=O)(=O)N(Cc2ccccc2)C(=O)N3C)c1` [Example 34, 2-Benzyl-4-methyl-1,1,3-trioxo-1,2,3,4-tetrahydro-1l^6-benzo[1,2,4]thiadiazine-7-carboxylic acid 3-methoxy-benzylamide], for which the IC50 in experiment [1] was > 30 µM; in experiment [2] it was > 30 µM; in experiment [3], > 100 µM; in experiment [4] it was > 30 µM; in experiment [5], > 30 µM; in experiment [7], 0.0625 µM.
Turning to `CN1C(=O)N(Cc2ccc(C(=O)O)cc2)S(=O)(=O)c2cc(C(=O)NCc3ccc(F)cc3)ccc21` [Example 25, 4-[7-(4-Fluoro-benzylcarbamoyl)-4-methyl-1,1,3-trioxo-3,4-dihydro-1H-1l^6-benzo[1,2,4]thiadiazin-2-ylmethyl]-benzoic Acid], the IC50 in experiment [1] is > 100 µM; in experiment [2], > 100 µM; in experiment [3], > 30 µM; in experiment [4], > 100 µM; in experiment [5], > 100 µM; in experiment [7], 0.019 µM.
Turning to `COc1ccc(CNC(=O)c2ccc3c(c2)S(=O)(=O)N(Cc2ccc(C(N)=O)cc2)C(=O)N3C)cc1` [Example 14, 2-(4-Carbamoyl-benzyl)-4-methyl-1,1,3-trioxo-1,2,3,4-tetrahydro-1l^6-benzo[1,2,4]thiadiazine-7-carboxylic acid 4-methoxy-benzylamide], the IC50 in experiment [1] was > 30 µM; in experiment [2], > 30 µM; in experiment [3] it was > 100 µM; in experiment [4] it was > 30 µM; in experiment [5], > 30 µM; in experiment [7], 0.155 µM.
With `COc1ccc(CNC(=O)c2ccc3c(c2)S(=O)(=O)N(Cc2ccc(C(=O)NC(C(=O)O)C(C)C)cc2)C(=O)N3C)cc1` (centres unmarked) [Example 28, 2-{4-[7-(4-Methoxy-benzylcarbamoyl)-4-methyl-1,1,3-trioxo-3,4-dihydro-1l^6-benzo[1,2,4]thiadiazin-2-ylmethyl]-benzoylamino}-3-methyl-butyric Acid], the IC50 is > 100 µM in experiment [1]; > 100 µM in experiment [2]; > 30 µM in experiment [3]; > 100 µM in experiment [4]; > 100 µM in experiment [5]; 0.25 µM in experiment [7].
With `COc1ccc(CNC(=O)c2ccc3c(c2)S(=O)(=O)N(Cc2ccc(S(=O)(=O)N4CCOCC4)cc2)C(=O)N3C)cc1` [Example 19, 4-Methyl-2-[4-(morpholine-4-sulfonyl)-benzyl]-1,1,3-trioxo-1,2,3,4-tetrahydro-1l^6-benzo[1,2,4]thiadiazine-7-carboxylic acid 4-methoxy-benzylamide], the IC50 was > 30 µM in experiment [1]; > 30 µM in experiment [2]; 11 µM in experiment [3]; > 30 µM in experiment [4]; > 30 µM in experiment [5]; 0.23 µM in experiment [7].
On to `COc1ccc(CNC(=O)c2ccc3c(c2)S(=O)(=O)N(Cc2ccc(-c4nn[nH]n4)cc2)C(=O)N3C)cc1` [Example 32, 4-Methyl-1,1,3-trioxo-2-[4-(2H-tetrazol-5-yl)-benzyl]-1,2,3,4-tetrahydro-1l^6-benzo[1,2,4]thiadiazine-7-carboxylic acid 4-methoxy-benzylamide], for which the IC50 is > 30 µM in experiment [1]; > 100 µM in experiment [2]; 15 µM in experiment [3]; > 100 µM in experiment [4]; > 100 µM in experiment [5]; 0.0062 µM in experiment [7].
As to `COc1cccc(CNC(=O)c2ccc3c(c2)S(=O)(=O)N(Cc2ccc(C(=O)O)cc2)C(=O)N3C)c1` [Example 31, 4-[7-(3-Methoxy-benzylcarbamoyl)-4-methyl-1,1,3-trioxo-3,4-dihydro-1H-1l^6-benzo[1,2,4]thiadiazin-2-ylmethyl]-benzoic Acid], the IC50 in experiment [1] is > 30 µM; in experiment [2] it was > 100 µM; in experiment [3] it was > 30 µM; in experiment [4], > 100 µM; in experiment [5], > 100 µM; in experiment [7] it was 0.00485 µM.
Regarding `COC(=O)c1ccc(CN2C(=O)N(C)c3ccc(C(=O)NCc4ccc(F)cc4)cc3S2(=O)=O)cc1` [Example 20, 4-[7-(4-Fluoro-benzylcarbamoyl)-4-methyl-1,1,3-trioxo-3,4-dihydro-1H-1l^6-benzo[1,2,4]thiadiazin-2-ylmethyl]-benzoic Acid Methyl Ester], the IC50 was > 30 µM in experiment [1]; > 30 µM in experiment [2]; > 30 µM in experiment [3]; 10 µM in experiment [4]; > 30 µM in experiment [5]; 0.385 µM in experiment [7].
For `COc1ccc(CNC(=O)c2ccc3c(c2)S(=O)(=O)N(Cc2ccc(CC(=O)O)cc2)C(=O)N3C)cc1` [Example 30, {4-[7-(4-Methoxy-benzylcarbamoyl)-4-methyl-1,1,3-trioxo-3,4-dihydro-1H-1l^6-benzo[1,2,4]thiadiazin-2-ylmethyl]-phenyl}-acetic Acid], the IC50 in experiment [1] is 82 µM; in experiment [2], > 100 µM; in experiment [3], > 30 µM; in experiment [4], > 100 µM; in experiment [5] it was > 100 µM; in experiment [7] it was 0.0355 µM.

The record behind these values is US6656932B2, “Benzo thiadiazine matrix metalloproteinase inhibitors” (Warner-Lambert Company, priority 2001, dated 2003).
